We go through 42 molecules from ChEMBL document CHEMBL1201862, “PubChem BioAssay data set” (2004).

The source made the active and inactive calls. Rule as the data show it, for most assays here: actives have a measured EC50 and inactives only a lower limit.

Assay [1] has as its target T1, Heat shock factor protein 1 (Mus musculus, UniProt P38532).
T1 sequence (P38532 whole entry): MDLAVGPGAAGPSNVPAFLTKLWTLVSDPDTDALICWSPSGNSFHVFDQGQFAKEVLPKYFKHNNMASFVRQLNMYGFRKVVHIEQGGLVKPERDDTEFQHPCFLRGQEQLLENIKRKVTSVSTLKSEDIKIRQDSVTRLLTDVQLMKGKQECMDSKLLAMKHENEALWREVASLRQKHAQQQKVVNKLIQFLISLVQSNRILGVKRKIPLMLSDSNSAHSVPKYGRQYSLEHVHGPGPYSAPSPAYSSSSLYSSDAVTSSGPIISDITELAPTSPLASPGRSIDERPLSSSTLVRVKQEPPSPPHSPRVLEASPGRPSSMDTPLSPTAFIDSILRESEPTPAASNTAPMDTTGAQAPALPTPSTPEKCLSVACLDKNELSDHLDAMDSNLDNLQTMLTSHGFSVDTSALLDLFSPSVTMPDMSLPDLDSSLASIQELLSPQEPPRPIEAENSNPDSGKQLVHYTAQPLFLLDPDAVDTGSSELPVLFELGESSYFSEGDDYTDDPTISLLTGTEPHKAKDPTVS
Put plainly: enhancement of HSF1-driven luciferase signal – cell-based, NIH3T3, luminescence, dose retest, confirmation (AID 435004).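 Also: stress induced by proteasome inhibitor MG132 added 30 min after compound; luciferase reporter driven by HSF1 response element in NIH3T3 cells; actives raise luminescence as potentiators of the MG132 stress response.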 It counts as functional.

For assay [2], the target named is T2, Replicative DNA helicase DnaB (Mycobacterium tuberculosis, UniProt P9WMR3).
T2 sequence (P9WMR3 whole entry): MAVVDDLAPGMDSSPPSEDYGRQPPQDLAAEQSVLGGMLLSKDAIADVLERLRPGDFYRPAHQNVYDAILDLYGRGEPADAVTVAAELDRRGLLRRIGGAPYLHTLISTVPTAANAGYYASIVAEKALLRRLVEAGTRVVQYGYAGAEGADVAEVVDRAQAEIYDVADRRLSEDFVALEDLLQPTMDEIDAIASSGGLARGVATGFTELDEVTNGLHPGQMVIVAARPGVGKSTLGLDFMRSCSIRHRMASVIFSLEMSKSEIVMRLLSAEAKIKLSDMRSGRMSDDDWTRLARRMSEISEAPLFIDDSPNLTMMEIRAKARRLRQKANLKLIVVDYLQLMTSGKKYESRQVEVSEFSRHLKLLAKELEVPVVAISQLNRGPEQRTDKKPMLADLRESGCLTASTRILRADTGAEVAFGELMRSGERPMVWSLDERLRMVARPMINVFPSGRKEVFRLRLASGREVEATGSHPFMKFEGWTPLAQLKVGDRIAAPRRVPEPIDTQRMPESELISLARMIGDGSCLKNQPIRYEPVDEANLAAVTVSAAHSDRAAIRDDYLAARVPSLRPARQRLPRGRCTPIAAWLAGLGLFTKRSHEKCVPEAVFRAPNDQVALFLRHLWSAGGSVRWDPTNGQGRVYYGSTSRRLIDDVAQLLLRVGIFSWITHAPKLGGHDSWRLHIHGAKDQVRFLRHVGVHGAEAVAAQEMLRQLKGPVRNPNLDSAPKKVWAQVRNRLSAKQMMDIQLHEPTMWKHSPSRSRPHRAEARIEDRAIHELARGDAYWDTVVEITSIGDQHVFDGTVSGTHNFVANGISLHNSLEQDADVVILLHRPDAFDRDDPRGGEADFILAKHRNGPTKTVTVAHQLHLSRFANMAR
Put plainly: DnaB intein splicing inhibitors, dose response, biochemical, cell-free fluorescence (AID 449749). It counts as functional.

Assay [3] has as its target T3, Protein RecA (Mycobacterium tuberculosis, UniProt P9WHJ3).
T3 sequence (P9WHJ3 whole entry): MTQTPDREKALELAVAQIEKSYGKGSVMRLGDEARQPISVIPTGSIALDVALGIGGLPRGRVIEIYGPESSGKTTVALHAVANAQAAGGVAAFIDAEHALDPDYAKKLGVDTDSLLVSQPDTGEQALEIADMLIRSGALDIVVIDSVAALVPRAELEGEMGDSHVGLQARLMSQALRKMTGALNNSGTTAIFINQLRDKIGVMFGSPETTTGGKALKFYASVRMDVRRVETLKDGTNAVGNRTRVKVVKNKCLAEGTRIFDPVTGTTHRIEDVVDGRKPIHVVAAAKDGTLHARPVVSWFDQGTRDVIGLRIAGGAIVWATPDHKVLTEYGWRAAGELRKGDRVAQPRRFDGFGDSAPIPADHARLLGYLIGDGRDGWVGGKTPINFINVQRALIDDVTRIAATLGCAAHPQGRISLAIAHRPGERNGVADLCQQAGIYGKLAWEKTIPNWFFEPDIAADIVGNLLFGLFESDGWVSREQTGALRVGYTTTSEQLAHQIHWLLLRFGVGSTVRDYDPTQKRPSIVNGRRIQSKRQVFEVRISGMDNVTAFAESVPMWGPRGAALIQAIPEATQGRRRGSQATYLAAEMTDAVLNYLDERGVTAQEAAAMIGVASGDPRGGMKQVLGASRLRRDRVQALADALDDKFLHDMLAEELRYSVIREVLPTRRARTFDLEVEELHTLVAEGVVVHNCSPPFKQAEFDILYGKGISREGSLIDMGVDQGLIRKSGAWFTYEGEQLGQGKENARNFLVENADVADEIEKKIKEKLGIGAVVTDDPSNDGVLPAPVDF
Put plainly: Fluorescence Cell-Free Homogeneous Dose Retest to Identify Inhibitors of RecA-Intein Splicing Activity. [Related pubchem assays (depositor defined):AID2097, AID2223, AID489010, AID492950]. Format: functional.

Assay [4] has as its target T1, Heat shock factor protein 1. The assay can be described thus: decrease of HSF1-responsive luciferase luminescence – cell-based, NIH3T3, dose retest, confirmation (AID 2382).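 Also: NIH3T3 fibroblasts with HSF1-driven luciferase reporter stressed by proteasome inhibitor MG132; luminescence from HSF1-driven luciferase expression after 8 hours of MG132 stress.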 Format: functional.
Assay [5] can be described thus: alpha-synuclein stem-loop luciferase translation blockers – H4 neuroglioma cells, luminescence, confirmation (AID 1988). Format: functional, cell-based.
A short description of assay [6]: luciferase reporter signal suppression in cells – H4 neuroglioma cells, luminescence, dose response (AID 1990). It counts as functional, cell-based. For orientation: Reporter assays use an easily measured gene product as a stand-in for the process of interest.
Assay [7] is described as follows: Luminescence Cell-Based Dose Response HTS to Identify Inhibitors of 5'UTR Stem-Loop Driven Prion Protein mRNA Translation in H4 Neuroglioblastoma Cells. [Related pubchem assays: 1827 (Project Summary), 1813 (Primary HTS)]. It counts as functional.
The nature of assay [8]: Trypanosoma cruzi growth suppression in host cells – NIH3T3 host cells, beta-gal luminescence, confirmation (AID 2044).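 Also: intracellular parasites grown in NIH/3T3 mouse fibroblasts as host cells; luminescent beta-galactosidase reporter signal from transgenic T. cruzi replicating inside host cells; inhibitors lower the luminescence signal.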 Format: functional, cell-based.
Assay [9] in a line: NIH3T3 cell viability loss – ATP luminescence, mouse fibroblasts, counter-screen, dose response (AID 2010).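 Also: cells exposed to compound for about 90 hours before reading.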 Format: functional, cell-based.

For orientation: EC50 means the concentration giving half of the maximal effect. For orientation: AC50 means the midpoint of the concentration-response curve, whichever way the signal moves.

In the case of `COc1cccc(NC=C2C(=O)CC(C)(C)CC2=O)c1`, the EC50 in [1] was 8.09 µM (active). On to `COc1cc(OC)cc(C(=O)N/N=C(\C)CC(=O)Nc2ccccn2)c1`, for which, in assay [2], the AC50 was 13.1 µM (active). The EC50 in assay [3] was 7.81 µM (active).

Take `COc1c([N+](=O)[O-])c(=O)oc2ccccc12`: the EC50 in assay [4] is on record as > 195 µM (not active). On to `Cc1ccc2oc(C(=O)N3CCC(C(N)=O)(N4CCCCC4)CC3)c(C)c2c1`, for which, in assay [4], the EC50 was > 195 µM (not active). On to `COc1ccc(NC(=O)Nc2c(O)ccc3ccccc23)cc1`, for which the AC50 in [2] was > 380 µM (inactive). Also, the EC50 in [3] was 1.49 µM (active). As for `COc1ccc(Cc2noc(-c3ccc(OC)c(OC)c3)n2)cc1OC`, the EC50 in [5], in assay [6] and in assay [7] was > 120 µM (not active) throughout. As for `O=C(Nc1ccc2[nH]ncc2c1)c1ccccc1Cl`, in assay [4], the EC50 is > 195 µM (not active). On to `CCOc1ccc(NC(=S)N(CCc2ccncc2)C(C)C)cc1`, for which the EC50 in [4] is on record as > 195 µM (not active). The same measure, in the same setting: as for `Cc1cc(C)n(-c2nc3ccccc3s2)n1`, the figure is > 195 µM (not active).

For the molecule `Fc1ccccc1-c1nc2nc3ccccc3nc2n1CC1CCCO1` (stereo not given), the EC50 in assay [1] was > 260 µM (inactive).

For `COc1ccc(Cl)cc1N1C(=O)/C(=C\c2sccc2C)N=C1SCC(=O)NC1CC1`, the EC50 in assay [1] is > 260 µM (inactive). On to `O=C(Nc1ccc2c(c1)ncn2C1CCCCC1)c1ccco1`, for which the EC50 in assay [4] is > 195 µM (not active). Still for that read-out and setting: as for `Cc1ccc2c(c1)N(Cc1ccc([N+](=O)[O-])cc1)C=NS2(=O)=O`, the figure is > 195 µM (not active). For the molecule `CC(C)C(C)N(Cc1ccc(C(=O)O)cc1)C(=O)c1ccc2ccccc2n1` (stereo not given), the EC50 in assay [1] was > 260 µM (inactive). On the same count and under the same terms, as for `CCOc1ccccc1-c1noc(CCCC(=O)NC2CCCCC2)n1`, the figure is > 260 µM (inactive). On to `Cc1n[nH]c(O)c1C(c1ccc2c(c1)OCO2)c1c(C)n[nH]c1O`, for which the AC50 in assay [2] was 0.324 µM (active). In addition, the 50% effective concentration (EC50) in [3] is 0.189 µM (active). Consider `COc1ccc(N(CC(=O)Nc2cccc(C)c2)S(=O)(=O)c2c(C)noc2C)cc1`, for which the EC50 in [4] is > 195 µM (not active). For the molecule `CN(C)c1ccc(C(=O)n2nnc3ccccc32)cc1`, the AC50 in assay [2] was 7.46 µM (active). In addition, the EC50 in assay [3] is 9.71 µM (active). On to `O=C1CC(N2C(=O)/C(=C/C=C/c3ccccc3)SC2=S)C(=O)N1c1ccccc1` (stereo not given), for which the EC50 in assay [1] was > 260 µM (inactive).

With `O=C(Cc1cccs1)NCc1ccccc1Br`, in assay [1], the EC50 is > 260 µM (inactive).

With `COC(=O)c1c(N2C(=O)[C@H]3[C@@H](C2=O)[C@]2(C(=O)Nc4c(C)cccc42)N2CCC[C@@H]32)sc(C)c1C`, the EC50 in assay [4] is reported as > 195 µM (not active).

Take `O=S(=O)(NCc1ccccn1)c1ccc2ccccc2c1`: in assay [1], the EC50 is > 260 µM (inactive).

As for `COc1cc(C(=O)N(C)C2CCCN(Cc3ccccc3F)C2)cc(OC)c1OC` (stereo not given), the EC50 in [4] is > 195 µM (not active). On to `COc1ccc2[nH]c(CN3CCC(CO)(CCOc4ccccc4)CC3)c(C)c2c1`, for which, in [2], the AC50 was > 380 µM (inactive). In addition, in assay [3], the EC50 is > 380 µM (inactive). On to `Cc1n[nH]c(O)c1C(c1ccc(F)cc1)c1c(C)n[nH]c1O`, for which the AC50 in assay [2] was 0.628 µM (active). In addition, in assay [3], the EC50 is 0.291 µM (active). In the case of `COc1ccc(N2CCN(C(c3cccs3)C(C)NS(=O)(=O)c3ccccc3)CC2)cc1` (stereo not given), the EC50 in [1] is > 260 µM (inactive). In the case of `Cc1sc2ncnc(N3CCOCC3)c2c1C`, the results for the EC50 in [5], in [6] and in assay [7] were 17.5 µM (active), 20.4 µM (active) and 40.6 µM (active), respectively. As to `CCN(C1CCS(=O)(=O)C1)S(=O)(=O)c1cccs1` (stereo not given), the EC50 in assay [4] is > 195 µM (not active).

`CN1CCN(C(=O)c2cc([N+](=O)[O-])cc([N+](=O)[O-])c2)CC1`: the EC50 in assay [4] was > 195 µM (not active). Still for that read-out and setting: under `S=C1NCCN1` [ETHYLENE THIOUREA] stands > 195 µM (not active). Consider `COC(=O)Nc1ccc(S(=O)(=O)Nc2cccc3ccccc23)cc1`, for which, in assay [1], the EC50 was > 260 µM (inactive). Regarding `CCCN(CCC)C(=O)CSc1nc2nnc(C)c-2c(N)n1-c1ccc(OC)cc1`, the EC50 in assay [5] was 16.1 µM (active); in assay [6] it was 19.3 µM (active); in assay [7] it was 19.8 µM (active). As for `Cc1ccccc1/[N+]([O-])=C/c1cccs1`, the EC50 in [1] is > 260 µM (inactive). As for `COc1ccc(N2CCN(C(=O)COC(=O)CCOc3ccccc3C)CC2)cc1`, the EC50 in assay [4] is > 195 µM (not active). With `O=C(Nc1cccc(-c2ccc(F)cc2)c1)C1CCCN(C(=O)c2cscn2)C1` (stereo not given), the EC50 in assay [4] is > 195 µM (not active).

Regarding `CCOc1ccccc1NC(=O)Cn1nnc(C(=O)NCc2ccc3c(c2)OCO3)c1N`, the EC50 in assay [5] is > 120 µM (not active); in [6], > 120 µM (not active); in [7], 36.7 µM (active). Turning to `CCC12C(=O)C(CC)(C(c3ccccc3)=C1c1ccccc1)[C@@H]1C(=O)N(c3ccc(C)cc3)C(=O)C12` (stereo not given in full), the half-maximal effective concentration (EC50) in assay [5] is > 120 µM (not active); in assay [6] it was 14.8 µM (active); in assay [8], 2.87 µM (active); in assay [9], > 30 µM (not active); in assay [7], > 120 µM (not active). For `CCc1ccc(NC(=O)COC(=O)/C=C/c2c(C)nn(C3CCS(=O)(=O)C3)c2Cl)cc1` (stereo not given), the EC50 in assay [1] was > 260 µM (inactive). As for `CN1CCN(C(=O)c2ccc(Cn3cc(Cl)cn3)o2)CC1`, in assay [1], the EC50 is > 260 µM (inactive). The same measure, in the same setting: under `CC1(c2cccs2)CC(c2cccs2)=C(C#N)C(=O)N1` (stereo not given) stands > 260 µM (inactive). With `CCN1C(=O)[C@H]2[C@@H](c3ccc(C)cc3)N3C(=O)N(c4ccc(C)cc4)C(=O)[C@@]3(C)[C@H]2C1=O`, the EC50 in assay [4] is reported as > 195 µM (not active). As to `O=C(NCc1nc2ccccc2[nH]1)C1=C[C@@H](c2ccc3c(c2)OCO3)C[C@@H](OCc2ccc(CO)cc2)O1`, the half-maximal effective concentration (EC50) in assay [4] is > 195 µM (not active).
